Test results reported in the NIST ThermoML archive (doi:10.1021/je900124n).
Several values for one entry are separate records, joined by “and”; a condition that tells them apart may be missing. Identical values can stand only once.

Settings: Fluid (supercritical or subcritical phases), Buoyancy - hydrostatic balance with magnetic suspension - two sinkers

CCC [propane]
Settings | mass density
400 K, 11790 kPa | 357.33 kg/m3
400 K, 11791 kPa | 357.335 kg/m3 [middle of 4 runs]
400 K, 15926 kPa | 390.231 kg/m3 [middle of 6 runs]
400 K, 15927 kPa | 390.233 kg/m3
400 K, 17448 kPa | 398.971 kg/m3
400 K, 17449 kPa | 398.975 kg/m3
400 K, 17450 kPa | 398.984 kg/m3 and 398.981 kg/m3 and 398.978 kg/m3
400 K, 29918 kPa | 445.478 kg/m3
400 K, 29922 kPa | 445.491 kg/m3
400 K, 29927 kPa | 445.504 kg/m3
400 K, 29932 kPa | 445.516 kg/m3
400 K, 29938 kPa | 445.533 kg/m3
400 K, 35836 kPa | 460.067 kg/m3
400 K, 35844 kPa | 460.086 kg/m3
400 K, 35852 kPa | 460.105 kg/m3
400 K, 35860 kPa | 460.123 kg/m3
400 K, 35868 kPa | 460.142 kg/m3
400.01 K, 3901.8 kPa | 73.2154 kg/m3
400.01 K, 3902 kPa | 73.2198 kg/m3
400.01 K, 10112 kPa | 336.233 kg/m3 and 336.235 kg/m3 and 336.236 kg/m3
420 K, 352.46 kPa | 4.5346 kg/m3 and 4.5345 kg/m3 and 4.5347 kg/m3
420 K, 352.47 kPa | 4.5348 kg/m3
420 K, 629.66 kPa | 8.229 kg/m3
420 K, 629.67 kPa | 8.2291 kg/m3
420 K, 990.94 kPa | 13.2257 kg/m3
420 K, 991.11 kPa | 13.2302 kg/m3
420 K, 992.11 kPa | 13.2437 kg/m3
420 K, 993.37 kPa | 13.2618 kg/m3
420 K, 994.27 kPa | 13.2745 kg/m3
420 K, 1638.8 kPa | 22.7735 kg/m3 and 22.7726 kg/m3
420 K, 1639 kPa | 22.7748 kg/m3
420 K, 1639.4 kPa | 22.7815 kg/m3 and 22.7817 kg/m3
420 K, 2549.6 kPa | 37.6977 kg/m3
420 K, 2549.8 kPa | 37.6995 kg/m3 and 37.7007 kg/m3 and 37.7006 kg/m3
420 K, 3591.6 kPa | 57.6483 kg/m3
420 K, 3591.8 kPa | 57.649 kg/m3
420 K, 3592 kPa | 57.6554 kg/m3 and 57.6545 kg/m3
420 K, 3592.3 kPa | 57.6606 kg/m3
420 K, 4243.9 kPa | 72.25 kg/m3
420 K, 4244 kPa | 72.2514 kg/m3
420 K, 5253.6 kPa | 99.376 kg/m3 and 99.3762 kg/m3
420 K, 5253.7 kPa | 99.3774 kg/m3 and 99.3766 kg/m3 and 99.3783 kg/m3
420 K, 6605.8 kPa | 147.752 kg/m3
420 K, 6605.9 kPa | 147.756 kg/m3 and 147.757 kg/m3
420 K, 6606 kPa | 147.761 kg/m3 and 147.757 kg/m3
420 K, 6612.9 kPa | 148.072 kg/m3
420 K, 6613 kPa | 148.069 kg/m3
420 K, 6613.1 kPa | 148.07 kg/m3 and 148.073 kg/m3
420 K, 6613.2 kPa | 148.071 kg/m3
420 K, 6780.5 kPa | 155.128 kg/m3 and 155.129 kg/m3
420 K, 6780.6 kPa | 155.129 kg/m3 and 155.128 kg/m3
420 K, 7709.3 kPa | 196.595 kg/m3
420 K, 7709.5 kPa | 196.603 kg/m3
420 K, 7709.6 kPa | 196.603 kg/m3
420 K, 7709.7 kPa | 196.608 kg/m3 and 196.605 kg/m3 and 196.607 kg/m3
420 K, 7709.8 kPa | 196.607 kg/m3
420 K, 7709.9 kPa | 196.61 kg/m3
420 K, 8228.3 kPa | 219.041 kg/m3
420 K, 8228.4 kPa | 219.041 kg/m3 and 219.043 kg/m3
420 K, 8228.5 kPa | 219.044 kg/m3 and 219.042 kg/m3 and 219.043 kg/m3
420 K, 8228.6 kPa | 219.042 kg/m3 and 219.043 kg/m3
420 K, 8848 kPa | 242.768 kg/m3 and 242.766 kg/m3 and 242.77 kg/m3
420 K, 8848.1 kPa | 242.767 kg/m3
420 K, 8848.2 kPa | 242.772 kg/m3 and 242.768 kg/m3
420 K, 10126 kPa | 279.933 kg/m3 and 279.935 kg/m3
420 K, 10127 kPa | 279.933 kg/m3 and 279.936 kg/m3 and 279.935 kg/m3
420 K, 13593 kPa | 335.538 kg/m3 [middle of 4 runs]
420 K, 20930 kPa | 389.39 kg/m3
420 K, 20931 kPa | 389.391 kg/m3 and 389.393 kg/m3
420.01 K, 629.66 kPa | 8.2291 kg/m3
420.01 K, 629.67 kPa | 8.229 kg/m3
420.01 K, 4243.9 kPa | 72.2481 kg/m3 and 72.2491 kg/m3 and 72.2487 kg/m3
420.01 K, 4244 kPa | 72.2505 kg/m3 and 72.2532 kg/m3 and 72.2519 kg/m3
420.01 K, 6606 kPa | 147.759 kg/m3
420.01 K, 6606.4 kPa | 147.771 kg/m3
420.01 K, 13593 kPa | 335.538 kg/m3 and 335.537 kg/m3
420.01 K, 20931 kPa | 389.392 kg/m3 and 389.394 kg/m3
420.01 K, 20932 kPa | 389.393 kg/m3
440 K, 368.32 kPa | 4.5138 kg/m3 and 4.514 kg/m3 and 4.5139 kg/m3
440 K, 658.93 kPa | 8.1892 kg/m3
440 K, 658.95 kPa | 8.1897 kg/m3
440 K, 1032.5 kPa | 13.0703 kg/m3 and 13.0712 kg/m3
440 K, 1032.8 kPa | 13.0744 kg/m3
440 K, 1733.1 kPa | 22.7483 kg/m3
440 K, 1733.2 kPa | 22.75 kg/m3 and 22.7499 kg/m3 and 22.7504 kg/m3
440 K, 1733.4 kPa | 22.752 kg/m3
440 K, 2721.5 kPa | 37.7309 kg/m3
440 K, 2721.7 kPa | 37.7344 kg/m3
440 K, 2721.8 kPa | 37.7372 kg/m3
440 K, 2721.9 kPa | 37.7372 kg/m3
440 K, 2722.1 kPa | 37.7402 kg/m3
440 K, 3865 kPa | 57.5204 kg/m3
440 K, 3865.3 kPa | 57.5255 kg/m3
440 K, 3865.4 kPa | 57.5267 kg/m3
440 K, 3865.5 kPa | 57.5266 kg/m3
440 K, 3865.7 kPa | 57.532 kg/m3
440 K, 4613.1 kPa | 72.2413 kg/m3 [middle of 4 runs]
440 K, 5803.9 kPa | 99.3306 kg/m3 and 99.3318 kg/m3
440 K, 5804 kPa | 99.3333 kg/m3 and 99.3338 kg/m3
440 K, 7526.8 kPa | 147.61 kg/m3 and 147.611 kg/m3
440 K, 7535.9 kPa | 147.904 kg/m3 and 147.903 kg/m3
440 K, 7536 kPa | 147.904 kg/m3
440 K, 7762.5 kPa | 154.944 kg/m3
440 K, 7762.6 kPa | 154.945 kg/m3 and 154.944 kg/m3
440 K, 9826.6 kPa | 218.701 kg/m3 and 218.702 kg/m3 and 218.7 kg/m3
440 K, 9826.7 kPa | 218.702 kg/m3 and 218.7 kg/m3 and 218.701 kg/m3
440.01 K, 658.93 kPa | 8.1888 kg/m3
440.01 K, 658.95 kPa | 8.1894 kg/m3 and 8.1895 kg/m3
440.01 K, 1032.5 kPa | 13.0692 kg/m3
440.01 K, 1032.8 kPa | 13.0752 kg/m3
440.01 K, 4613.1 kPa | 72.2397 kg/m3 and 72.2408 kg/m3 and 72.2337 kg/m3
440.01 K, 7526.8 kPa | 147.613 kg/m3 and 147.61 kg/m3 and 147.611 kg/m3
440.01 K, 7526.9 kPa | 147.613 kg/m3 and 147.612 kg/m3
460 K, 384.07 kPa | 4.4943 kg/m3 [middle of 5 runs]
460 K, 687.74 kPa | 8.1494 kg/m3
